Results as given in PubChem BioAssay (NCI).
Values joined by “and” are separate entries in the source; they are usually repeats but may differ in a detail not shown here. Equal entries are not always repeated.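 Compound exposure: 48 hours, 5 concentrations, 96-well plates. At the GI50, growth is halved. The concentration for full growth arrest is given as TGI.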

How the values were obtained:
Test in all cases: growth of human tumour cells (NCI), 48 h
[1] = system: NCI-H460 lung
[2] = system: HL-60(TB) leukemia
[3] = system: OVCAR-4 ovarian
[4] = system: SN12C renal
[5] = system: SF-268 CNS
[6] = system: HT29 colon
[7] = system: K-562 leukemia
[8] = system: M14 melanoma

**Q.** `CCS(=O)(=O)c1ccc(OC)c(Nc2ncc(-c3cccc(F)c3)o2)c1` was tested. Which GI50 [1] did it give?
**A.** > 25000 nM

**Q.** What about the TGI [1] of the same molecule?
**A.** > 25 µM

**Q.** What about the GI50 [2] of the same molecule?
**A.** > 25000 nM

**Q.** And the TGI [2]?
**A.** > 25 µM

**Q.** What about the GI50 [3] of the same molecule?
**A.** > 25000 nM

**Q.** What about the TGI [3] of the same molecule?
**A.** > 25 µM

**Q.** What about the GI50 [4] of the same molecule?
**A.** > 25000 nM

**Q.** And the TGI [4]?
**A.** > 25 µM

**Q.** What about the GI50 [5] of the same molecule?
**A.** > 25000 nM

**Q.** What about the TGI [5] of the same molecule?
**A.** > 25 µM

**Q.** And the GI50 [6]?
**A.** > 25000 nM

**Q.** And the TGI [6]?
**A.** > 25 µM

**Q.** And the GI50 [7]?
**A.** > 25000 nM

**Q.** And the TGI [7]?
**A.** > 25 µM

**Q.** And the GI50 [8]?
**A.** > 25000 nM

**Q.** And the TGI [8]?
**A.** > 25 µM

**Q.** Which results are given for `COc1ccc2c(c1)/C(=N/OC(C)=O)c1c-2c(OC)nc2ccccc12`?
**A.** GI50 [1]: > 100000 nM; TGI [1]: > 100 µM; GI50 [2]: > 100000 nM; TGI [2]: > 100 µM; GI50 [3]: 58300 nM; TGI [3]: > 100 µM; GI50 [4]: 59900 nM; TGI [4]: > 100 µM; GI50 [5]: > 100000 nM; TGI [5]: > 100 µM; GI50 [6]: > 100000 nM; TGI [6]: > 100 µM; GI50 [7]: > 100000 nM; TGI [7]: > 100 µM; GI50 [8]: > 100000 nM; TGI [8]: > 100 µM

**Q.** `CC(C)(C)[Si](C)(C)OC1[C@@H](COC(=O)NC(=O)CCl)O[C@@H](n2cnc3c(N)ncnc32)[C@H]1O[Si](C)(C)C(C)(C)C` (stereo partly drawn) was tested. Which GI50 [1] did it give?
**A.** 7220 nM

**Q.** What about the TGI [1] of the same molecule?
**A.** 14.9 µM

**Q.** And the GI50 [2]?
**A.** 4520 nM

**Q.** And the TGI [2]?
**A.** 12.3 µM

**Q.** What about the GI50 [3] of the same molecule?
**A.** 3890 nM

**Q.** And the TGI [3]?
**A.** 10.7 µM

**Q.** And the GI50 [4]?
**A.** 1170 nM

**Q.** What about the TGI [4] of the same molecule?
**A.** 3.23 µM

**Q.** And the GI50 [5]?
**A.** 1930 nM

**Q.** What about the TGI [5] of the same molecule?
**A.** 5.23 µM

**Q.** What about the GI50 [6] of the same molecule?
**A.** 2590 nM

**Q.** What about the TGI [6] of the same molecule?
**A.** 8.53 µM

**Q.** And the GI50 [7]?
**A.** 1360 nM

**Q.** And the TGI [7]?
**A.** 3.36 µM

**Q.** And the GI50 [8]?
**A.** 1390 nM

**Q.** And the TGI [8]?
**A.** 4.23 µM

**Q.** Which GI50 [1] does the source give for `O=C1/C(=C/c2ccc([N+](=O)[O-])o2)Oc2ccc(Cl)cc21` here?
**A.** 3000 nM

**Q.** What about the TGI [1] of the same molecule?
**A.** 15.4 µM

**Q.** What about the GI50 [2] of the same molecule?
**A.** 2080 nM

**Q.** And the TGI [2]?
**A.** 18.3 µM

**Q.** And the GI50 [3]?
**A.** 1900 nM

**Q.** And the TGI [3]?
**A.** 3.68 µM

**Q.** And the GI50 [4]?
**A.** 2200 nM

**Q.** What about the TGI [4] of the same molecule?
**A.** 5.67 µM

**Q.** And the GI50 [5]?
**A.** 1840 nM

**Q.** What about the TGI [5] of the same molecule?
**A.** 3.77 µM

**Q.** And the GI50 [6]?
**A.** 1870 nM

**Q.** And the TGI [6]?
**A.** 3.98 µM

**Q.** What about the GI50 [7] of the same molecule?
**A.** 438 nM

**Q.** What about the TGI [7] of the same molecule?
**A.** 2.17 µM

**Q.** What about the GI50 [8] of the same molecule?
**A.** 2010 nM

**Q.** And the TGI [8]?
**A.** 4.93 µM

**Q.** `COc1ccc2c(c1)-c1c(c3cc(OC)ccc3n(CCN(C)C)c1=O)C2=O` was tested. Which GI50 [1] did it give?
**A.** 341 nM

**Q.** What about the TGI [1] of the same molecule?
**A.** 2.09 µM

**Q.** And the GI50 [2]?
**A.** 1380 nM

**Q.** And the TGI [2]?
**A.** 5.97 µM

**Q.** What about the GI50 [3] of the same molecule?
**A.** 799 nM

**Q.** What about the TGI [3] of the same molecule?
**A.** 4 µM

**Q.** And the GI50 [4]?
**A.** 320 nM

**Q.** What about the TGI [4] of the same molecule?
**A.** 6.16 µM

**Q.** And the GI50 [5]?
**A.** 362 nM

**Q.** What about the TGI [5] of the same molecule?
**A.** 6.21 µM

**Q.** And the GI50 [6]?
**A.** 240 nM

**Q.** And the TGI [6]?
**A.** 1.2 µM

**Q.** What about the GI50 [7] of the same molecule?
**A.** 280 nM

**Q.** And the TGI [7]?
**A.** 3.09 µM

**Q.** And the GI50 [8]?
**A.** 1800 nM

**Q.** And the TGI [8]?
**A.** 10.2 µM

**Q.** What does the source list for `CCOC(=O)/C=C1/SC(=Nc2ccc(C#N)cc2)N(Cc2ccco2)C1=O`?
**A.** GI50 [1]: 5660 nM; TGI [1]: 19.7 µM; GI50 [2]: 2380 nM; TGI [2]: 5.76 µM; GI50 [3]: 2740 nM; TGI [3]: 11.2 µM; GI50 [4]: 2450 nM; TGI [4]: 6.76 µM; GI50 [5]: 3380 nM; TGI [5]: 13.7 µM; GI50 [6]: 2110 nM; TGI [6]: 4.61 µM; GI50 [7]: 3160 nM; TGI [7]: 11.4 µM; GI50 [8]: 2220 nM; TGI [8]: 6.55 µM

**Q.** How did the GI50 [1] turn out when `CN(C)c1ccc2[nH]c3c(C(N)=O)cc(=O)c(=O)c=3oc2c1` was run?
**A.** 2570 nM

**Q.** What about the TGI [1] of the same molecule?
**A.** > 100 µM

**Q.** What about the GI50 [2] of the same molecule?
**A.** 668 nM

**Q.** What about the TGI [2] of the same molecule?
**A.** 4.04 µM

**Q.** What about the GI50 [3] of the same molecule?
**A.** 1670 nM

**Q.** What about the TGI [3] of the same molecule?
**A.** 6.42 µM

**Q.** What about the GI50 [4] of the same molecule?
**A.** 1950 nM

**Q.** What about the TGI [4] of the same molecule?
**A.** 7.23 µM

**Q.** What about the GI50 [5] of the same molecule?
**A.** 3040 nM

**Q.** What about the TGI [5] of the same molecule?
**A.** > 100 µM

**Q.** And the GI50 [6]?
**A.** 3660 nM

**Q.** What about the TGI [6] of the same molecule?
**A.** > 100 µM

**Q.** What about the GI50 [7] of the same molecule?
**A.** 358 nM

**Q.** And the TGI [7]?
**A.** > 100 µM

**Q.** And the GI50 [8]?
**A.** 2930 nM

**Q.** And the TGI [8]?
**A.** > 100 µM

**Q.** How did the TGI [1] turn out when `N=C(CC(=O)Nc1ccccn1)c1ccccc1` was run?
**A.** > 100 µM

**Q.** And the TGI [2]?
**A.** > 100 µM

**Q.** What about the TGI [3] of the same molecule?
**A.** > 100 µM

**Q.** What about the TGI [4] of the same molecule?
**A.** > 100 µM

**Q.** And the TGI [5]?
**A.** > 100 µM

**Q.** And the TGI [6]?
**A.** > 100 µM

**Q.** What about the TGI [7] of the same molecule?
**A.** > 100 µM

**Q.** What about the TGI [8] of the same molecule?
**A.** > 100 µM

**Q.** For `COC(=O)CC1=C(C)/C(=C/c2[nH]c(-c3ccc[nH]3)cc2OC)N=C1C`, which GI50 [1] is on record?
**A.** 179 nM

**Q.** And the TGI [1]?
**A.** 2.2 µM

**Q.** And the GI50 [2]?
**A.** 154 nM

**Q.** And the TGI [2]?
**A.** 0.882 µM

**Q.** What about the GI50 [3] of the same molecule?
**A.** 147 nM

**Q.** And the TGI [3]?
**A.** 4.03 µM

**Q.** And the GI50 [4]?
**A.** 458 nM

**Q.** What about the TGI [4] of the same molecule?
**A.** 9.19 µM

**Q.** What about the GI50 [5] of the same molecule?
**A.** 388 nM

**Q.** What about the TGI [5] of the same molecule?
**A.** 10.9 µM

**Q.** What about the GI50 [6] of the same molecule?
**A.** 37.5 nM

**Q.** What about the TGI [6] of the same molecule?
**A.** 1.19 µM

**Q.** What about the GI50 [7] of the same molecule?
**A.** 218 nM

**Q.** And the TGI [7]?
**A.** 10.6 µM

**Q.** And the GI50 [8]?
**A.** 272 nM

**Q.** And the TGI [8]?
**A.** 0.863 µM

**Q.** For `CNC(=O)c1cc(Oc2ccc(NC(=O)Nc3cc(C(C)(C)C)nn3-c3ccc4ncccc4c3)c(F)c2)ccn1`, which GI50 [1] is on record?
**A.** 2060 nM and 2040 nM

**Q.** And the TGI [1]?
**A.** 8.11 µM and 6.93 µM

**Q.** What about the GI50 [2] of the same molecule?
**A.** 3330 nM and 2530 nM

**Q.** And the TGI [2]?
**A.** 6.57 µM and 5.8 µM

**Q.** What about the GI50 [3] of the same molecule?
**A.** 2380 nM and 2490 nM

**Q.** And the TGI [3]?
**A.** 7.74 µM and 14.5 µM

**Q.** And the GI50 [4]?
**A.** 646 nM and 484 nM

**Q.** And the TGI [4]?
**A.** 5.74 µM and 4.68 µM

**Q.** And the GI50 [5]?
**A.** 1410 nM and 1520 nM

**Q.** And the TGI [5]?
**A.** 5.16 µM and 4.49 µM

**Q.** What about the GI50 [6] of the same molecule?
**A.** 520 nM and 505 nM

**Q.** What about the TGI [6] of the same molecule?
**A.** 3.65 µM and 5.07 µM

**Q.** And the GI50 [7]?
**A.** 15.1 nM and 27.5 nM

**Q.** What about the TGI [7] of the same molecule?
**A.** > 100 µM

**Q.** And the GI50 [8]?
**A.** 370 nM and 395 nM

**Q.** And the TGI [8]?
**A.** 2.49 µM and 2 µM

**Q.** What does the source list for `O=C1Cc2cc(CCN3CCNCC3)c(Cl)cc2N1`?
**A.** GI50 [1]: 22900 nM; TGI [1]: > 100 µM; GI50 [2]: 43000 nM; TGI [2]: > 100 µM; GI50 [3]: 87800 nM; TGI [3]: > 100 µM; GI50 [4]: 6000 nM; TGI [4]: > 100 µM; GI50 [5]: 12700 nM; TGI [5]: > 100 µM; GI50 [6]: > 100000 nM; TGI [6]: > 100 µM; GI50 [7]: 6240 nM; TGI [7]: > 100 µM; GI50 [8]: 3020 nM; TGI [8]: 26.5 µM
